We go through 16 compounds from patent publication US6642222B2, “Pyrano, piperidino, and thiopyrano compounds and methods of use” (Abbott Laboratories, priority 1998, dated 2003).

For experiment [1], the system named is Guinea-Pig Bladder (GPB) Cells. In words: Membrane Hyperpolarization (MHP) assay, DiBAC(4)3 / FLIPR. As to conditions: for Maximal Response (% P1075): maximal steady-state hyperpolarization, normalized to 10 μM P1075 (100%); for EC50: membrane hyperpolarization, GPB cells; for Emax: read-out: Maximal Response (% P1075), maximal steady-state hyperpolarization, normalized to 10 μM P1075 (100%).
Experimental: Compounds were evaluated for potassium channel opening activity using primary cultured guinea-pig urinary bladder (GPB) cells.
For the preparation of urinary bladder smooth muscle cells, urinary bladders were removed from male guinea-pigs (Hartley, Charles River, Wilmington, Mass.) weighing 300-400 grams (g) and placed in ice-cold Ca^2+-free Krebs solution (Composition, millimolar (mM): KCl, 2.7; KH2PO4, 1.5; NaCl, 75; Na2HPO4, 9.6; Na2HPO4.7H2O, 8; MgSO4, 2; glucose, 5; HEPES, 10; pH 7.4). Cells were isolated by enzymatic dissociation (Klockner, U. and Isenberg, G., Pflugers Arch. (1985), 405, 329-339). The bladder was cut into small sections and incubated in 5 milliliters (mL) of the Kreb's solution containing 1 milligram per milliliter (mg/mL) of collagenase (Sigma, St. Louis, Mo.) and 0.2 mg/mL of pronase (Calbiochem, La Jolla, Calif.) with continuous stirring in a cell incubator for 30 minutes. The mixture was then centrifuged at 1300× g for 5 minutes, and the pellet resuspended in Dulbecco's phosphate buffered saline (PBS) (GIBCO, Gaithersburg, Md.) and recentrifuged to remove residual enzyme. The cell pellet was resuspended in 5 mL growth media (composition: Dulbecco's modified Eagle's medium supplemented with 10% fetal bovine serum, 100 units/mL penicillin, 100 units/mL streptomycin and 0.25 mg/mL amphotericin B) and further dissociated by pipetting the suspension through a flame-polished Pasteur pipette and passing it through a polypropylene mesh membrane (Spectrum, Houston, Tex.). The cell density was adjusted to 100,000 cells/mL by resuspension in growth media. Cells were plated in clear-bottomed black 96-well plates (Packard) for membrane potential studies at a density of 20,000 cells/well and maintained in a cell incubator with 90% air: 10% CO2 until confluent. Cells were confirmed to be of smooth muscle type by cytoskeletal staining using a monoclonal mouse anti human-α-smooth muscle actin (Biomeda, Foster City, Calif.).
Functional activity at potassium channels was measured by evaluating changes in membrane potential using the bis-oxonol dye DiBAC(4)3 (Molecular Probes) in a 96-well cell-based kinetic assay system using a Fluorescent Imaging Plate Reader (FLIPR) (K. S. Schroeder et al., J. Biomed. Screen., v. 1 pp. 75-81 (1996)). DiBAC(4)3 is an anionic potentiometric probe which partitions between cells and extracellular solution in a membrane potential-dependent manner. With increasing membrane potential (for example, K^+ depolarization), the probe further partitions into the cell; this is measured as an increase in fluorescence due to dye interaction with intracellular lipids and proteins. Conversely, decreasing membrane potential (hyperpolarization by potassium channel openers) evokes a decrease in fluorescence.
Confluent guinea-pig urinary bladder cells cultured in black clear-bottomed 96-well plates were rinsed twice with 200 mL assay buffer (composition, mM: HEPES, 20; NaCl, 120; KCl, 2; CaCl2, 2; MgCl2, 1; glucose, 5; pH 7.4 at 25° C.) containing 5 μM DiBAC(4)3 and incubated with 180 mL of the buffer in a cell incubator for 30 minutes at 37° C. to ensure dye distribution across the membrane. After recording the baseline fluorescence for 5 minutes, the reference or test compounds, prepared at 10 times the concentration in the assay buffer, were added directly to the wells. Changes in fluorescence were monitored for an additional 25 minutes.
Routinely, five concentrations of P1075 or test compounds (log or half-log dilutions) were evaluated and the maximal steady-state hyperpolarization values (expressed as % relative to P1075) plotted as a function of concentration. The EC50 (concentration that elicites 50% of the maximal response for the test sample) values were calculated by non-linear regression analysis using a four parameter sigmoidal equation. The maximal micromolar EC50 response of each compound (expressed as % relative to P1075) is reported.

For a further experiment, the system named is Landrace Pig Bladder. In words: Functional potassium channel opening activity in isolated bladder strips (field-stimulated twitch). To be noted: for Index: ED50 for P1075 divided by ED50 for the test agonist, averaged over tissues; for Efficacy (% P1075) / Emax: maximal efficacy relative to P1075, field stimulated bladder strips; for pD2 / EC50: negative logarithm of ED50; for Emax / EC50: Sus scrofa; for EC50: read-out: pD2 (converted). As for the experimental part:
Compounds were evaluated for functional potassium channel opening activity using tissue strips obtained from Landrace pig bladders. Landrace pig bladders were obtained from female Landrace pigs of 9-30 kg. Landrace pigs were euthanized with an intraperitoneal injection of pentobarbital solution, Somlethal®, J. A. Webster Inc. Sterling Mass. The entire bladder was removed and immediately placed into Krebs Ringer bicarbonate solution (composition, mM: NaCl, 120; […] Dextrose, 4.7; […] Propranolol (0.004 mM) was included in all of the assays to block β-adrenoceptors. The trigonal and dome portions were […], Strips 3-5 […] (mm) wide and 20 mm long were prepared from the remaining tissue cut in a circular fashion. The mucosal layer was removed. One end was fixed to a stationary glass rod and the other to a Grass FT03 transducer at a basal preload of 1.0 g. Two parallel platinum electrodes were included in the stationary glass trod to provide field stimulation of 0.05 Hz, 0.5 milli-seconds at 20 volts. […] Tissues were allowed to equilibrate for at least 60 minutes and primed with 80 mM KCl. A control concentration response curve (cumulative) was generated for each tissue using the potassium channel opener […] as the control agonist. […] After a 60 minute rinsing period, a concentration response curve (cumulative) was generated for the test agonist in the same fashion as that used for the control agonist […]. The maximal efficacy of each compounds (expressed as % relative to […]) is reported. The amount of agent necessary to cause 50% of the agent's maximal response (ED50) was calculated using “ALLFIT” (DeLean et al., Am. J. […] Agonist potencies were also expressed as an index relative to […]. The index was calculated by dividing the ED50 for […] by the ED50 for the test agonist in a given tissue. Each tissue was used for only one test agonist, and the indices obtained from each tissue were averaged to provide an average index of potency.

With `Cl.O=C1CNCC2=C1C(c1ccc(F)c(Br)c1)C1=C(COC1=O)N2` (centres unmarked) [Example 40, 9-(3-bromo-4-fluorophenyl)-5,6,7,9-tetrahydrofuro [3,4-b][1,7]naphthyridine-1,8(3H,4H)-dione hydrochloride], in experiment [1] (Hydrochloride), the “Maximal Response (% P1075)” value came out at 111 % P1075 and the EC50 was found to be 320 nM. Further, in the experiment on Landrace Pig Bladder (Hydrochloride), the Index is 0.13, the “Efficacy (% P1075)” value is 91 % P1075 and the pD2 was found to be 6.0.
`O=C1COCC2=C1C(c1ccc(Cl)c(Cl)c1)C1=C(COCC1=O)N2` [Example 33, 5-(3,4-dichlorophenyl)-5,10-dihydro-1H,3H-dipyrano[3,4-b:4,3-e]pyridine-4,6(7H,9H)-dione]: in experiment [1], the “Maximal Response (% P1075)” value is reported as 92 % P1075 and the EC50 amounted to 3.4 nM. Besides, in the experiment on Landrace Pig Bladder, the Index was found to be 0.27, the “Efficacy (% P1075)” value is on record as 93 % P1075 and the pD2 was 5.9.
In the case of `Cc1ccc(C2C3=C(COCC3=O)NC3=C2C(=O)COC3)cc1[N+](=O)[O-]` [Example 59, 5-(4-methyl-3-nitrophenyl)-5,10-dihydro-1H,3H-dipyrano[3,4-b:4,3-e]pyridine-4,6(7H,9H)-dione], in experiment [1], the “Maximal Response (% P1075)” value is reported as 94 % P1075 and the EC50 is 99 nM. Besides, in the experiment with Landrace Pig Bladder, the Index is recorded as 0.17, the “Efficacy (% P1075)” value is reported as 73 % P1075 and the pD2 is 5.9.
On to `Cl.O=C1CNCC2=C1C(c1ccc(F)c(Br)c1)C1=C(CCCS1(=O)=O)N2` (centres unmarked) [Example 9, 10-(3-bromo-4-fluorophenyl)-3,4,6,7,8,10-hexahydro-2H-thiopyrano[3,2-b][1,7]naphthyridin-9(5H)-one 1,1-dioxide Hydrochloride], for which, in experiment [1] (Cavia porcellus), the EC50 amounted to 2600 nM and the Emax worked out at 89%. In addition, in the experiment on Landrace Pig Bladder, the Index was determined as 0.0015, the Emax was determined as 82% and the EC50 was 126000 nM.
As for `Cc1ccc(C2C3=C(COCC3=O)NC3=C2C(=O)COC3)cc1I` [Example 54, 5-(3-iodo-4-methylphenyl)-5,10-dihydro-1H,3H-dipyrano[3,4-b:4,3-e]pyridine-4,6(7H,9H)-dione], in experiment [1], the “Maximal Response (% P1075)” value is on record as 101 % P1075 and the EC50 was 9.5 nM. In addition, in the experiment on Landrace Pig Bladder, the Index is 0.48, the “Efficacy (% P1075)” value came out at 100 % P1075 and the pD2 was 6.9.
As to `O=C1CCCC2=C1C(c1ccc(F)c(Br)c1)C1=C(CSCC1=O)N2` (centres unmarked) [Example 50, 5-(3-bromo-4-fluorophenyl)-5,8,9,10-tetrahydro-1H-thiopyrano[3,4-b]quinoline-4,6(3H,7H)-dione], in experiment [1] (Cavia porcellus), the EC50 was 84 nM and the Emax came to 108%. Further, in the experiment on Landrace Pig Bladder, the Index is given as 0.28, the Emax turned out to be 96% and the EC50 is 631 nM.
As to `O=C1COCC2=C1C(c1ccc(F)c(Br)c1)C1=C(COCC1=O)N2` [Example 1, 5-(3-bromo-4-fluorophenyl)-5,10-dihydro-1H,3H-dipyrano[3,4-b:4,3-e]pyridine-4,6(7H,9H)-dione], in experiment [1], the “Maximal Response (% P1075)” value was determined as 96 % P1075 and the EC50 amounted to 27 nM. For the same compound, in the experiment on Landrace Pig Bladder, the Index stood at 0.36, the “Efficacy (% P1075)” value amounted to 97 % P1075 and the pD2 was found to be 6.9.
Regarding `N#Cc1cccc(C2C3=C(COCC3=O)NC3=C2S(=O)(=O)CC3)c1` (single isomer, unassigned; (+)) [Example 15, (+)9-(3-cyanophenyl)-2,3,5,9-tetrahydro-4H-pyrano [3,4-b]thieno[2,3-e]pyridin-8(7H)-one 1,1-dioxide], in experiment [1], the “Maximal Response (% P1075)” value was 90 % P1075 and the EC50 is 640 nM. For the same compound, in the experiment with Landrace Pig Bladder, the Index was determined as 0.027, the Emax was 100% and the EC50 was 2000 nM.
For `O=C1COCC2=C1C(c1ccc(F)c(Br)c1)C1=C(CCNC1=O)N2` (centres unmarked) [Example 52, 10-(3-bromo-4-fluorophenyl)-3,4,6,10-tetrahydro-2H-pyrano[3,4-b][1,6]naphthyridine-1,9(5H,8H)-dione], in experiment [1] (Cavia porcellus), the EC50 came to 380 nM and the Emax came to 105%. For the same compound, in the experiment with Landrace Pig Bladder, the Index is 0.069, the Emax came out at 99% and the EC50 is 5010 nM.
Turning to `O=C1COCC2=C1C(c1cc(Br)ccc1O)C1=C(COCC1=O)N2` [Example 31, 5-(5-bromo-2-hydroxyphenyl)-5,10-dihydro-1H,3H-dipyrano[3,4-b:4,3-e]pyridine-4,6(7H,9H)-dione], in experiment [1], the “Maximal Response (% P1075)” value was found to be 83 % P1075 and the EC50 stood at 1300 nM. In addition, in the experiment with Landrace Pig Bladder, the Index was found to be 0.065, the “Efficacy (% P1075)” value is on record as 85 % P1075 and the pD2 came out at 5.1.
For `O=C1COCC2=C1[C@@H](c1ccc(F)c(Br)c1)C1=C(COC1=O)N2` (single isomer, unassigned) [Example 42], in experiment [1] (Cavia porcellus), the EC50 turned out to be 26 nM and the Emax came out at 102%. In the experiment on Landrace Pig Bladder, the Index was 0.17, the Emax turned out to be 95% and the EC50 was 631 nM.
As to `Cl.O=C1CNCC2=C1C(c1ccc(F)c(Br)c1)C1=C(COC1=O)N2` (centres unmarked) [Example 39, 9-(3-bromo-4-fluorophenyl)-5,6,7,9-tetrahydrofuro[3,4-b][1,7]naphthyridine-1,8(3H,4H)-dione Hydrochloride], in experiment [1] (Hydrochloride), the “Maximal Response (% P1075)” value was found to be 80 % P1075 and the EC50 came to 680 nM. Moreover, in the experiment with Landrace Pig Bladder (Hydrochloride), the Index came out at 0.036 and the pD2 is 5.6. The same compound showed an Emax with Landrace Pig Bladder of 96%.
For the compound `O=C1COCC2=C1C(c1ccc(F)c(I)c1)C1=C(COCC1=O)N2` [Example 30, 5-(4-fluoro-3-iodophenyl)-5,10-dihydro-1H,3H-dipyrano[3,4-b:4,3-e]pyridine-4,6(7H,9H)-dione], in experiment [1], the “Maximal Response (% P1075)” value came out at 81 % P1075 and the EC50 came out at 5 nM. In the experiment with Landrace Pig Bladder, the Index amounted to 1.1, the “Efficacy (% P1075)” value amounted to 100 % P1075 and the pD2 was 7.6.
With `O=C1COCC2=C1C(c1ccc(Cl)c([N+](=O)[O-])c1)C1=C(COCC1=O)N2` [Example 28, 5-(4-chloro-3-nitrophenyl)-5,10-dihydro-1H,3H-dipyrano[3,4-b:4,3-e]pyridine-4,6(7H,9H)-dione], in experiment [1], the “Maximal Response (% P1075)” value is given as 98 % P1075 and the EC50 was 64 nM. In the experiment with Landrace Pig Bladder, the Index was found to be 0.42, the “Efficacy (% P1075)” value is 94 % P1075 and the pD2 is 6.7.
Consider `O=C1COCC2=C1[C@H](c1ccc(F)c(I)c1)C1=C(COC1=O)N2` (single isomer, unassigned) [Example 78], for which, in experiment [1] (Cavia porcellus), the EC50 stood at 4.9 nM and the Emax was 97%. For the same compound, in the experiment on Landrace Pig Bladder, the Index was determined as 0.79, the Emax was determined as 96% and the EC50 was 79.4 nM.
Turning to `O=C1COCC2=C1C(c1ccc(F)c(C(F)(F)F)c1)C1=C(COCC1=O)N2` [Example 32, 5-[4-fluoro-3-(trifluoromethyl)phenyl]-5,10-dihydro-1H, 3H-dipyrano[3,4-b:4,3-e]pyridine-4,6(7H,9H)-dione], in experiment [1], the “Maximal Response (% P1075)” value came out at 102 % P1075 and the EC50 amounted to 15 nM. Besides, in the experiment on Landrace Pig Bladder, the Index was 0.41, the “Efficacy (% P1075)” value stood at 100 % P1075 and the pD2 worked out at 6.3.
